From patent US20170247326A1, “Substituted Pyrrolidine Carboxamide Compounds” (EPIZYME, INC., priority 2014, published 2017)

The compounds below were run against T1, SMYD2 (Homo sapiens, UniProt Q9NRG4) (assay: SMYD2 biochemical assay (3H-SAM, biotinylated peptide substrate, Flashplate)). Conditions: Table 1; average of n = 1 to n = 50; read-out: SMYD2 Biochem IC50.
T1 construct: Full length SMYD2 (NP_064582.2) was cloned; His6 (N, cleaved yes); FLAG (N); made in house; host or cells: Sf9 insect cells
Excerpt: S-adenosylmethionine (SAM), S-adenosylhomocysteine (SAH), bicine, Tween20, dimethylsulfoxide (DMSO), bovine skin gelatin (BSG), and Tris(2-carboxyethyl)phosphine hydrochloride (TCEP) were purchased from Sigma-Aldrich at the highest level of purity possible. ^3H-SAM was purchase from American Radiolabeled Chemicals with a specific activity of 80 Ci/mmol. 384-well streptavidin Flashplates were purchased from PerkinElmer.
Peptide was synthesized with a N-terminal linker-affinity tag motif and a C-terminal amide cap by 21st Century Biochemicals. The peptide was high high-performance liquid chromatography (HPLC) purified to greater than 95% purity and confirmed by liquid chromatography mass spectrometry (LC-MS). The sequence was […](K-Biot)-amide. (SEQ ID NO: 3)
Full length SMYD2 (NP_064582.2) was cloned into a pFastbac-Htb-lic vector with an N-terminal His6 tag and FLAG tag, preceded by a TEV protease cleavage site. The protein was expressed in Sf9 insect cells. Cells were resuspended in lysis buffer (25 mM HEPES-NaOH, pH 7.5, 200 mM NaCl, 5% glycerol, and 5 mM […] and lysed by sonication. The protein was purified by Ni-NTA (Qiagen), followed by TEV cleavage to remove the His6 tag, subtractive Ni-NTA (Qiagen), and gel filtration chromatography using an S200 column (GE Healthcare). Purified protein was stored in 20 mM Tris-HCl, pH 8.0, 100 mM NaCl, and 1 mM TCEP.
General Procedure for SMYD2 Enzyme Assays on Peptide Substrates
The assays were all performed in a buffer consisting of 20 mM Bicine (pH=7.6), 1 mM TCEP, 0.005% Bovine Skin Gelatin, and 0.002% Tween20, prepared on the day of use. Compounds in 100% DMSO (1 ul) were spotted into a polypropylene 384-well V-bottom plates (Greiner) using a Platemate Plus outfitted with a 384-channel head (Thermo Scientific). DMSO (1 ul) was added to Columns 11, 12, 23, 24, rows A-H for the maximum signal control and 1 ul of SAH, a known product and inhibitor of SMYD2, was added to columns 11, 12, 23, 24, rows I-P for the minimum signal control. A cocktail (40 ul) containing the SMYD2 enzyme was added by Multidrop Combi (Thermo-Fisher). The compounds were allowed to incubate with SMYD2 for 30 min at room temperature, then a cocktail (10 ul) containing ^3H-SAM and peptide was added to initiate the reaction (final volume=51 ul). The final concentrations of the components were as follows: SMYD2 was 1.5 nM, ^3H-SAM was 10 nM, and peptide was 60 nM, SAH in the minimum signal control wells was 1000 uM, and the DMSO concentration was 2%. The assays were stopped by the addition of non-radioactive SAM (10 ul) to a final concentration of 600 uM, which dilutes the ^3H-SAM to a level where its incorporation into the peptide substrate is no longer detectable. 50 ul of the reaction in the 384-well polypropylene plate was then transferred to a 384-well Flashplate and the biotinylated peptides were allowed to bind to the streptavidin surface for at least 1 hour before being washed three times with 0.1% Tween20 in a Biotek ELx405 plate washer. The plates were then read in a PerkinElmer TopCount plate reader to measure the quantity of ^3H-labeled peptide bound to the Flashplate surface, measured as disintegrations per minute (dpm) or alternatively, referred to as counts per minute (cpm).
Where dpm=disintegrations per minute, cmpd=signal in assay well, and min and max are the respective minimum and maximum signal controls.
Where top and bottom are the normally allowed to float, but may be fixed at 100 or 0 respectively in a 3-parameter fit. The Hill Coefficient normally allowed to float but may also be fixed at 1 in a 3-parameter fit. I is the compound concentration.
SMYD2 biochemical assay data for representative Compounds of the Disclosure are presented in Tables 1, 3, and 4 in the column titled “SMYD2 Bicohem IC50 (μM).”

T1 sequence (Q9NRG4 whole entry): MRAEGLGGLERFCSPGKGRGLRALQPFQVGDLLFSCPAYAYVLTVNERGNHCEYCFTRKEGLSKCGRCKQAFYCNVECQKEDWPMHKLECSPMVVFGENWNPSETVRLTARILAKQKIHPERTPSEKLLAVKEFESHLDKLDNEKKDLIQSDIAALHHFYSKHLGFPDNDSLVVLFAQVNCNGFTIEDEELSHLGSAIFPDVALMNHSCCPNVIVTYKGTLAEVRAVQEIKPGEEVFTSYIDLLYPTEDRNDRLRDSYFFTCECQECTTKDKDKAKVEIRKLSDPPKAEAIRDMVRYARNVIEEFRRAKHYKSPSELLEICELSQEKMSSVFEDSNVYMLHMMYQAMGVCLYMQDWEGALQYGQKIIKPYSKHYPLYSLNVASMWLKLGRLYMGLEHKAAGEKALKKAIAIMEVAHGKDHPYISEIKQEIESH

Question: With `C[C@H]1CN(C2CC2)C[C@H]1NC(=O)Cc1ccc2c(c1)NC(=O)CO2` (racemic) [compound 4, (±)-cis-N-(1-cyclopropyl-4-methylpyrrolidin-3-yl)-2-(3-oxo-3,4-dihydro-2H-benzo[b][1,4]oxazin-6-yl)acetamide] as the compound, how does the IC50 read?
Answer: > 50 µM

Question: Which IC50 does the source give for `CCc1cc(C(=O)N[C@@H]2CN(C3CC3)C[C@@H]2C)ns1` (racemic) [compound 12, (±)-cis-N-(1-cyclopropyl-4-methylpyrrolidin-3-yl)-5-ethylisothiazole-3-carboxamide] here?
Answer: 7.1 µM

Question: How did the IC50 turn out when `C[C@@H]1CN(C2CC2)C[C@@H]1NC(=O)c1ccc2c(c1)OC(F)(F)O2` (racemic) [compound 2, (±)-cis-N-(1-cyclopropyl-4-methylpyrrolidin-3-yl)-2,2-difluorobenzo[d][1,3]dioxole-5-carboxamide] was run?
Answer: > 50 µM

Question: For `C[C@H]1CN(C2CC2)C[C@H]1NC(=O)c1cn(C2CC2)nn1` (racemic) [compound 19, (±)-cis-1-cyclopropyl-N-(1-cyclopropyl-4-methylpyrrolidin-3-yl)-1H-1,2,3-triazole-4-carboxamide], which IC50 is on record?
Answer: 1.4 µM

Same assay, conditions: Table 3; average of n = 1 to n = 50; read-out: SMYD2 Biochem IC50

Question: With `C[C@@H]1CN(Cc2ccc(OCc3ccccc3)cc2)C[C@H]1NC(=O)c1cn(C2CC2)nn1` (racemic) [compound 97, (±)-trans-N-(1-{[4-(benzyloxy)phenyl]methyl}-4-methylpyrrolidin-3-yl)-1-cyclopropyl-1H-1,2,3-triazole-4-carboxamide] as the compound, how does the IC50 read?
Answer: 10.5 µM

Question: Which IC50 does the source give for `CC(C)N1C[C@H](C)[C@H](NC(=O)c2cc(C3CC3)[nH]n2)C1` (racemic) [compound 61, (±)-cis-5-cyclopropyl-N-[4-methyl-1-(propan-2-yl)pyrrolidin-3-yl]-1H-pyrazole-3-carboxamide] here?
Answer: > 50 µM

Question: Which IC50 does the source give for `CC(C)N1C[C@@H](C)[C@@H](NC(=O)c2cc(C3CC3)cnn2)C1` (stereo in doubt) [compound 101, rel-5-cyclopropyl-N-[(3R,4R)-4-methyl-1-(propan-2-yl)pyrrolidin-3-yl]pyridazine-3-carboxamide] here?
Answer: 0.245 µM

Question: How did the IC50 turn out when `CC(C)N1C[C@H](C)[C@H](NC(=O)c2nnc(C3CC3)o2)C1` (racemic) [compound 53, (±)-cis-5-cyclopropyl-N-[4-methyl-1-(propan-2-yl)pyrrolidin-3-yl]-1,3,4-oxadiazole-2-carboxamide] was run?
Answer: 4.64 µM

Question: Which IC50 does the source give for `CC(C)N1C[C@H](C)[C@H](NC(=O)c2ccc(C3CC3)nn2)C1` (racemic) [compound 109, (±)-cis-6-cyclopropyl-N-[4-methyl-1-(propan-2-yl)pyrrolidin-3-yl]pyridazine-3-carboxamide] here?
Answer: > 50 µM

Question: How did the IC50 turn out when `CC(C)N1C[C@H](C)[C@H](NC(=O)c2cc(C3CC3)ncn2)C1` (racemic) [compound 50, (±)-cis-6-cyclopropyl-N-[4-methyl-1-(propan-2-yl)pyrrolidin-3-yl]pyrimidine-4-carboxamide] was run?
Answer: 16.7 µM

Question: For `CC1CN(C(C)C)CC1NC(=O)c1ccn(C(C)C)n1` (racemic) [compound 44, (±)-trans-N-[4-methyl-1-(propan-2-yl)pyrrolidin-3-yl]-1-(propan-2-yl)-1H-pyrazole-3-carboxamide], which IC50 is on record?
Answer: > 50 µM

Question: How did the IC50 turn out when `CC(C)N1C[C@H](C)[C@H](NC(=O)c2ccc3c(c2)NC(=O)CO3)C1` (single isomer, unassigned) [compound 32, (+)-cis-N-[4-methyl-1-(propan-2-yl)pyrrolidin-3-yl]-3-oxo-3,4-dihydro-2H-1,4-benzoxazine-6-carboxamide] was run?
Answer: > 50 µM

Question: How did the IC50 turn out when `CC(C)c1coc(C(=O)N[C@@H]2CN(C(C)C)C[C@@H]2C)n1` (racemic) [compound 102, (±)-cis-N-[4-methyl-1-(propan-2-yl)pyrrolidin-3-yl]-4-(propan-2-yl)-1,3-oxazole-2-carboxamide] was run?
Answer: > 50 µM

Question: How did the IC50 turn out when `CC(C)N1C[C@H](C)[C@H](NC(=O)c2ncc(C3CC3)cn2)C1` (racemic) [compound 59, (±)-cis-5-cyclopropyl-N-[4-methyl-1-(propan-2-yl)pyrrolidin-3-yl]pyrimidine-2-carboxamide] was run?
Answer: > 50 µM

Question: For `CC(C)N1C[C@@H](C)[C@H](NC(=O)c2ccc(C3CC3)c(=O)[nH]2)C1` (racemic) [compound 57, (±)-trans-5-cyclopropyl-N-[4-methyl-1-(propan-2-yl)pyrrolidin-3-yl]-6-oxo-1,6-dihydropyridine-2-carboxamide], which IC50 is on record?
Answer: > 50 µM

Question: `CC(C)N1C[C@H](NC(=O)c2cnn(C(C)C)c2)[C@@H](C)C1` (racemic) [compound 47, (±)-trans-N-[4-methyl-1-(propan-2-yl)pyrrolidin-3-yl]-1-(propan-2-yl)-1H-pyrazole-4-carboxamide] was tested. Which IC50 did it give?
Answer: > 50 µM

Question: How did the IC50 turn out when `CC(C)N1C[C@@H](C)[C@H](NC(=O)c2nnc(C3CC3)o2)C1` (racemic) [compound 49, (±)-trans-5-cyclopropyl-N-[4-methyl-1-(propan-2-yl)pyrrolidin-3-yl]-1,3,4-oxadiazole-2-carboxamide] was run?
Answer: 26.8 µM

Question: Which IC50 does the source give for `CC(C)N1C[C@H](C)[C@H](NC(=O)c2ccc(C3CC3)[nH]c2=O)C1` (racemic) [compound 83, (±)-cis-6-cyclopropyl-N-[4-methyl-1-(propan-2-yl)pyrrolidin-3-yl]-2-oxo-1,2-dihydropyridine-3-carboxamide] here?
Answer: > 50 µM

Question: Which IC50 does the source give for `C[C@H]1CN(C2CC2)C[C@H]1NC(=O)c1cccc(N2CCCC2)c1` (racemic) [compound 31, (±)-cis-N-[1-cyclopropyl-4-methylpyrrolidin-3-yl]-3-(pyrrolidin-1-yl)benzamide] here?
Answer: > 50 µM

Question: With `CC(C)N1C[C@@H](C)[C@H](NC(=O)CCN2CCCC2)C1` (racemic) [compound 55, (±)-trans-N-[4-methyl-1-(propan-2-yl)pyrrolidin-3-yl]-3-(pyrrolidin-1-yl)propanamide] as the compound, how does the IC50 read?
Answer: > 50 µM

Question: `CC(C)N1C[C@@H](C)[C@H](NC(=O)c2ccn(C(C)C)n2)C1` (racemic) [compound 45, (±)-trans-N-[4-methyl-1-(propan-2-yl)pyrrolidin-3-yl]-1-(propan-2-yl)-1H-pyrazole-3-carboxamide] was tested. Which IC50 did it give?
Answer: > 50 µM

Question: With `CC(C)N1C[C@H](C)[C@H](NC(=O)c2ncc(C3CC3)o2)C1` (racemic) [compound 76, (±)-cis-5-cyclopropyl-N-[4-methyl-1-(propan-2-yl)pyrrolidin-3-yl]-1,3-oxazole-2-carboxamide] as the compound, how does the IC50 read?
Answer: 6.77 µM

Question: Which IC50 does the source give for `CC(C)N1C[C@H](C)[C@H](NC(=O)c2csnc2C2CC2)C1` (racemic) [compound 92, (±)-cis-3-cyclopropyl-N-[4-methyl-1-(propan-2-yl)pyrrolidin-3-yl]-1,2-thiazole-4-carboxamide] here?
Answer: 19.6 µM

Question: With `CC(C)N1C[C@H](C)[C@H](NC(=O)CCN2CCCC2)C1` (racemic) [compound 56, (±)-cis-N-[4-methyl-1-(propan-2-yl)pyrrolidin-3-yl]-3-(pyrrolidin-1-yl)propanamide] as the compound, how does the IC50 read?
Answer: > 50 µM

Question: Which IC50 does the source give for `CC(C)N1C[C@@H](C)[C@H](NC(=O)c2cnnc(C3CC3)c2)C1` (racemic) [compound 65, (±)-trans-6-cyclopropyl-N-[4-methyl-1-(propan-2-yl)pyrrolidin-3-yl]pyridazine-4-carboxamide] here?
Answer: > 50 µM

Question: For `CC(C)N1C[C@H](C)[C@H](NC(=O)c2coc(C3CC3)n2)C1` (racemic) [compound 63, (±)-cis-2-cyclopropyl-N-[4-methyl-1-(propan-2-yl)pyrrolidin-3-yl]-1,3-oxazole-4-carboxamide], which IC50 is on record?
Answer: > 50 µM

Question: `CC(C)N1C[C@@H](C)[C@@H](NC(=O)c2cn(C3CC3)cn2)C1` (stereo in doubt) [compound 121, (±)-cis-1-cyclopropyl-N-(1-isopropyl-4-methylpyrrolidin-3-yl)-1H-imidazole-4-carboxamide] was tested. Which IC50 did it give?
Answer: 2.2 µM
